Experiment [1] has as its system CTGF expression in ARPE-19 cells. The experiment in a line: Thrombin-induced CTGF expression in ARPE-19 cell lysates (western blot). Conditions: for reduction of thrombin-induced CTGF expression: thrombin 1 U/mL.
Description: Cell culture experiments: Cells. Human ARPE-19 (ATCC® CRL-2302™; American Type Culture Collection, Manassas VA) cells were cultured in DMEM cell culture media (Gibco/ThermoFisher Scientific) containing high glucose DMEM with D-glucose (4.5 g/L), L-glutamine, sodium pyruvate (110 mg/L), Penicillin and Streptomycin (1×) and 10% of FBS. Cells (<passage 10 after purchase) were expanded in T75 cell culture flasks at 37° C., in the presence of 5% CO2. Confluent cells were trypsinized with 0.05% trypsin (Gibco), and equal numbers of cells were seeded on 6-well transwell filters/plate (Costar). […] Integrity of the cell monolayer was assessed by Transepithelial resistance (TER) measurements using an EVOM volt-ohmmeter (World Precision Instruments) four weeks after plating. RPE monolayers with a stable TER repeatedly measured as ˜40-45 S2 cm 2 were used for these experiments.
Treatments. Prior to each experiment, the cell monolayer was washed with serum-free medium (SFM) and maintained in SFM for 24 hours. […] Treatments were performed on the apical side of the transwell membrane, which represents the retinal side of the RPE in vivo. Some of the cells were treated with thrombin (EMD Millipore Corp), complement components C3a, C5a (Complement Technology), thrombin agonist PAR1-AP (Sigma-Aldrich; amino acid sequence SFLLRN (SEQ ID NO: 1)), thrombin inhibitor dabigatran etexilate (Sigma-Aldrich), C3 inhibitor compstatin (R&D Systems), AP inhibitor TT30 (Alexion Therapeutics), a protease inhibitor alpha1-antitrypsin (Sigma-Aldrich), and the thrombin receptor proteinase activated receptor 1 inhibitor SCH 79797 (Sigma-Aldrich). Treatments were performed 60 min prior to the addition of thrombin. Cell culture supernatant and lysate were collected after specific time points or after 24 hrs of treatment and stored at −20° C. for later use.
Western blotting. […] Cell lysates were collected in RIPA cell lysis buffer containing 150 mM NaCl, 1.0% IGEPAL® CA-630, 0.5% sodium deoxycholate, 0.1% SDS, 50 mM Tris (pH 8.0) (Sigma-Aldrich) in presence of 1×protease inhibitor (Sigma-Aldrich). Equal amount of each samples were loaded on 4-20% Criterion™ TGX™ precast gels (Bio-Rad Laboratories, Inc.) (Annamalai, B., et al. (2020). Invest Ophthalmol Vis Sci 61, 45). Proteins were transferred to a nitrocellulose membrane and incubated in primary antibody followed by appropriate secondary antibodies coupled to peroxidase, followed by band development and detection using Clarity™ Western ECL blotting substrate (Bio-Rad Laboratories, Inc.) and chemiluminescent detection. Protein bands were scanned and densities quantified using ImageJ software. The following antibodies were used: C3a (1:1000; Complement Technology), C5a (1:1000; Abcam), connective tissue growth factor/CTGF (1:1000; Abcam), C3d anti-C3d (clone 11, 1:1000; generation of the antibody is described in (Thurman, J. M., et al. (2013). J Clin Invest 123, 2218-2230)), VEGF (1:1000, Santa Cruz Biotechnology, Inc.), β-actin (1:2000; Cell Signaling Technology) and concentrations selected based on the data sheet recommendations.
ARPE-19 cell monolayers were treated with thrombin (0.5-10 U/ml) and cell lysates were collected and analyzed for CTGF levels at 4 hrs post treatment by western blotting.
Another experiment relates to complement component C3. The experiment in a line: Thrombin-mediated C3 cleavage in apical supernatants of ARPE-19 cells (western blot). Type of experiment: cell-based, human. Conditions: 100 μM. As to the method:
Second, it was tested whether thrombin can cleave complement components (Huber-Lang, M., et al. (2006). Nat Med 12, 682-687; and Krisinger, M. J., et al. (2012). Blood 120, 1717-1725), specifically C3 and C5, producing cleavage products potentially different from those produced by classical convertases. To test the effects of thrombin on complement cleavage, the apical supernatants of treated ARPE-19 cell monolayers were analyzed by western blotting. Cleavage of C3α was evaluated using an antibody specific for C3a (FIG. 5A, left-hand blot). The C3a antibody detected C3, the C3α band as well as other fragments containing C3a. Thrombin caused a concentration dependent cleavage of complement component C3 (˜190 kDa), caused reduction of the 120 kDa C3a band and generation of a new 80 kDa fragment. Fragments at 32 kDa and 9-10 kDa with higher doses of thrombin treatment (FIG. 5A, 10 U/mL) were also observed. The 9-10 kDa band ran at the same molecular weight as purified C3a (FIG. 11). The reduction of the 120 kDa fragment was correlated with the generation of the 80 kDa fragment (FIG. 5B). The loss of the 120 kDa fragment was prevented by either dabigatran (10 μM) or the C3 inhibitor compstatin (100 μM), which inhibits complement both on cell membranes as well as in fluid phase, but not by TT30 (10 μM), which is an inhibitor that prevents membrane-bound AP activation (FIG. 5C). […]
Background: Immunoblotting shows a protein as a band on a membrane.

Another experiment has as its target thrombin (Homo sapiens, UniProt P00734). The experiment can be described thus: Thrombin activity in cell-free system. Conditions: 100 μM.
The subject of experiment [2] is VEGF secretion in ARPE-19 cells. The experiment can be described thus: VEGF secretion into apical supernatant of ARPE-19 monolayers (ELISA). Type of experiment: cell-based, human. Here is the method: (§1) Cell culture experiments: Cells. […] Frontiers in Aging Neuroscience 9).
VEGF ELISA. VEGF in the supernatant was measured using the Quantikine® Human VEGF Immunoassay (R & D System) according to the manufacturer's protocol. In brief, 200 μl of standard/sample was mixed with 50 μl of assay diluent and added to the plate precoated with the capture antibody. After washing, 200 μl of the VEGF detection antibody (polyclonal antibody specific for human VEGF conjugated to horseradish peroxidase) was added, followed by freshly prepared substrate reagents (stabilized hydrogen peroxide and tetramethylbenzidine). The reaction was terminated using 50 μl of stop solution and absorbance was measured at λ1 450 nm with wavelength correction λ2 at 540 nm. VEGF concentration of samples were calculated comparing the absorbance with the standards and converted into fold change considering the serum-free condition as 1 in the scale.
(In general: In an ELISA, binding on a coated surface is turned into a signal by an enzyme label.)

In a further experiment the test system is ARPE-19 cell monolayers. The experiment can be described thus: Transepithelial resistance (TER) of ARPE-19 monolayers. Type of experiment: cell-based, human. As to the method: as §1
Thrombin reduces barrier function in RPE cells and induces CTGF expression and VEGF secretion. […] Thrombin is a serine-protease and is a known contributor to the damage of the blood-brain barrier (Machida, T., et al. (2017). PLoS One 12, e0177447). To examine the effects of thrombin on the blood-retina barrier (i.e., TER), dose- (0.5-10.0 U/ml) and time- (4 and 24 hrs) dependent treatments were performed on stable ARPE-19 cell monolayers, and treatment effects on TER levels to TER at baseline (serum free media/SFM before treatment, 0 hrs) (FIG. 2) were compared.

On to `CC[C@H](C)[C@H](N)C(=O)N[C@H]1CSSC[C@@H](C(=O)N[C@H](C(N)=O)[C@@H](C)O)NC(=O)[C@H](CCCN=C(N)N)NC(=O)[C@H](Cc2cnc[nH]2)NC(=O)[C@H](Cc2cnc[nH]2)NC(=O)CNC(=O)[C@H](Cc2c[nH]c3ccccc23)NC(=O)[C@H](CC(=O)O)NC(=O)[C@H](CCC(N)=O)NC(=O)[C@H](C(C)C)NC(=O)[C@H](C(C)C)NC1=O` [compstatin], for which the “effect on thrombin-induced CTGF expression” value in experiment [1] (compstatin) is reported as “partially reduce”. In addition, the “effect on thrombin-mediated loss of the 120 kDa C3 fragment” value with complement component C3 is listed as “prevented”. Moreover, the “effect on thrombin enzyme activity” value at thrombin is “did not affect”. The “effect on thrombin-induced VEGF secretion” value in experiment [2] (compstatin) is on record as “partially reduce”.
For `CC(C)c1ccc(Cn2ccc3c4c(N)nc(NC5CC5)nc4ccc32)cc1` [SCH79797], the “reduction of thrombin-induced CTGF expression” value in experiment [1] (SCH79797 250 μM) worked out at 1.7 fold. Also, the “effect on thrombin-induced VEGF secretion” value in experiment [2] (SCH79797) was “reduced”.
On to “C3a: complement component, anaphylatoxin (Complement Technology)”, for which the “effect on VEGF secretion” value in experiment [2] (C3a, 260 nM) is given as “weak stimulator”.
Turning to “alpha1-antitrypsin: general (non-specific) protease inhibitor (Sigma-Aldrich)”, the “reduction of thrombin-induced CTGF expression” value in experiment [1] (alpha1-antitrypsin 1 mg/mL) was determined as 5.3 fold.
Turning to thrombin, the “effect on CTGF expression” value in experiment [1] (thrombin, 4 hrs, P<0.05) was “significantly increased”. The “effect on TER” value with ARPE-19 cell monolayers (thrombin 0.5 U/mL, apical) is “barely affected”; in the experiment with ARPE-19 cell monolayers (thrombin 2.5 U/ml, 24 hrs) it was “significant damage to the epithelial barrier integrity”; in the experiment on ARPE-19 cell monolayers (thrombin 5 U/ml and 10 U/ml, 4 hrs) it was “significant barrier function loss”. Moreover, the “increase of VEGF in apical supernatants” value in experiment [2] (thrombin alone) is 2.5 fold.

B1: C5a: complement component, anaphylatoxin (Complement Technology) (protein, UniProt P01031 678-751, looked up)
C5a anaphylatoxin: TLQKKIEEIAAKYKHSVVKKCCYDGACVNNDETCEQRAARISLGPRCIKAFTECCVVASQLRANISHKDMQLGR
modifications: C5a anaphylatoxin
As for B1, in experiment [2] (C5a, 52 nM), the “effect on VEGF secretion” value is “increasing VEGF levels to that identified by thrombin stimulation”.

Source of the values: US20230381163A1, “DABIGATRAN COMPOSITIONS AND METHODS OF TREATING AGE-RELATED MACULAR DEGENERATION” (The United States Government As Represented By The …, priority 2022, published 2023).
